Data set [1] can be described thus: Metabolic stability in human liver microsomes. Particulars: pH 7.4, 120 min, TRIS buffer pH 7.4, 37 °C, read-out: Metabolic stability (% remaining after incubation with HLMs). Format: in vitro ADME. As to the method: The assays and protocols used for evaluating the KA-232 ADME-Tox parameters were similar to those described previously for compound KA-11 [6].
Figure S3 The MetaSite 6.0.1. software prediction of the most probably sites of KA-232
metabolism. The darker red color - the higher probability to be involved in the metabolism
pathway. The blue circle marked the site of compound with the highest probability of metabolic
Figure S4 UPLC spectra after 120 min incubation of compound KA-232 with human liver
microsomes in TRIS buffer pH=7.4 at 37 °C.
reaction mixture. Three metabolites M1, M2 and M3 were identified as well as the products
(m/z= 382.18, m/z=445.23) of compound degradation in physiological buffers (see also Figure […]
On the technique in general: Microsomes from liver hold many membrane-bound enzymes, among them those of drug oxidation.

In data set [2] the test system is Calcium Cav1.2 channels (dihydropyridine site, antagonist radioligand). Put plainly: Radioligand binding, Cav1.2 dihydropyridine site. Also noted: species or system rat. As to the method: (§1) Dysfunction of both sodium and calcium ion channels is known to be one of the crucial reasons behind the pathogenesis of seizures. Consequently, these ion channels are molecular targets for several clinically important ASDs such as lacosamide, lamotrigine, carbamazepine, oxcarbazepine and compounds currently under preclinical and clinical studies. Thus, for KA-228 and KA-232, we tested herein their binding profile toward the aforementioned ion channels at concentrations of 10 and 100 µM (Table 3). […] Apart from in vitro studies focused on explaining the mechanism of action, KA-232 was additionally tested for its interaction with the potassium channel (hERG) which is recognized as one of the most important ‘off-targets’ responsible for harmful arrhythmogenic activity. Thus, the interaction of potential drug candidates with hERG must be excluded at an early stage of development.
(§2) Binding studies were carried out commercially in Eurofins Laboratories (Poitiers, France or New Taipei City, Taiwan).

Data set [3] deals with 6-Hz-induced psychomotor seizures in mice. Put plainly: 6 Hz (32 mA) seizure model. Format: in vivo. As to the method:
The experiments were conducted on adult male albino Swiss mice weighing 22–26 g. The animals were kept in colony cages under standardized laboratory conditions: natural light–dark cycle 12/12 h, temperature 20–24 °C, air humidity 45–65% and free access to tap water and food (chow pellets). After 7 days of adaptation to laboratory conditions, the animals were randomly assigned to experimental groups consisting of 8 mice. The experimental procedures described herein were approved by the Local Ethics Committee in Lublin, Poland (approval numbers: 71/2020 and 13/2021), and were conducted in accordance with EU Directive 2010/63/EU for animal experiments. All efforts were made to minimize animal suffering and to use only the number of animals necessary to produce reliable scientific data according to the 3Rs rule.
All substances (except PTZ and tetracaine hydrochloride dissolved in water for injections) were suspended in a 1% solution of Tween 80 (Sigma-Aldrich, Saint Louis, MO, USA) in water for injections (Baxter, Warszawa, Poland) or 0.9% NaCl. All drugs were injected intraperitoneally (i.p.) 30 min before all seizure models with 1 mL syringes as a single injection, in a volume of 10 mL/kg. The pretreatment time (30 min) before testing for KA-228 and KA-232 was chosen based on the time to peak of maximum anticonvulsant activity of KA-11 from our previous studies.
The 6-Hz-induced psychomotor seizures in mice were evoked by current (6 Hz, 0.2 ms rectangular pulse width, 32 mA, 3 s duration) generated by an S48 Square Pulse Stimulator and CCU1 Constant Current Unit (Grass Technologies, West Warwick, RI, USA). The animals were administered with increasing doses of KA-228 and KA-232, and the anticonvulsant activity of each drug was evaluated as the ED50. This experimental procedure has been described in detail in our previous studies.
The ED50 or TD50 values for tested substances in the acute animal models of seizures were calculated using the computer log-probit analysis. Subsequently, the ED50 and TD50 values (±SEM) were statistically analyzed using one-way analysis of variance (ANOVA) followed by the post hoc Dunnett’s test for multiple comparisons. Differences among values were considered statistically significant if p < 0.05. GraphPad Prism version 8 for Windows (GraphPad Software, San Diego, CA, USA) was used as a statistical software program. The results obtained from the acute ivPTZ test and grip strength test were evaluated by a Student’s t test. Fisher’s exact probability test was used to analyze protection from tonic forelimb and hindlimb extension in the ivPTZ test.

In data set [4] the test system is neuromuscular strength in mice. Put plainly: Grip strength test. It is filed as in vivo. As to the method: The experiments were conducted on adult male albino Swiss mice weighing 22–26 g. The animals were kept in colony cages under standardized laboratory conditions: natural light–dark cycle 12/12 h, temperature 20–24 °C, air humidity 45–65% and free access to tap water and food (chow pellets). After 7 days of adaptation to laboratory conditions, the animals were randomly assigned to experimental groups consisting of 8 mice. The experimental procedures described herein were approved by the Local Ethics Committee in Lublin, Poland (approval numbers: 71/2020 and 13/2021), and were conducted in accordance with EU Directive 2010/63/EU for animal experiments. All efforts were made to minimize animal suffering and to use only the number of animals necessary to produce reliable scientific data according to the 3Rs rule. The grip strength test was carried out according to the methodology described by Socała et al.. Neuromuscular strength was measured just before the ivPTZ seizure threshold test to limit the number of animals used. The ED50 or TD50 values for tested substances in the acute animal models of seizures were calculated using the computer log-probit analysis. Subsequently, the ED50 and TD50 values (±SEM) were statistically analyzed using one-way analysis of variance (ANOVA) followed by the post hoc Dunnett’s test for multiple comparisons. Differences among values were considered statistically significant if p < 0.05. GraphPad Prism version 8 for Windows (GraphPad Software, San Diego, CA, USA) was used as a statistical software program. The results obtained from the acute ivPTZ test and grip strength test were evaluated by a Student’s t test. Fisher’s exact probability test was used to analyze protection from tonic forelimb and hindlimb extension in the ivPTZ test. Figure 8 Effects of KA-228 and KA-232 on neuromuscular strength in mice. KA-228 and KA-232 were administered i.p., 30 min before the test. Control animals received vehicle. […] The statistical significance was evaluated using the Student’s t test: * p < 0.05 vs. the vehicle-treated group (GraphPad Prism 8).

Data set [5] deals with Calcium Cav1.2 channels (diltiazem site, antagonist radioligand). Put plainly: Radioligand binding, Cav1.2 diltiazem site. Set-up: species or system rat. As to the method:
as §1, §2

Data set [6] concerns the target T1, TRPV1 (VR1) (antagonist effect) (Homo sapiens, UniProt Q8NER1).
T1 construct: host or cells: CHO cells
Put plainly: TRPV1 antagonist functional assay (intracellular Ca2+, CHO cells). Particulars: 10 µM. It is filed as cell-based. On the procedure:
as §2

Structures are written as SMILES.

T1 sequence (Q8NER1 whole entry): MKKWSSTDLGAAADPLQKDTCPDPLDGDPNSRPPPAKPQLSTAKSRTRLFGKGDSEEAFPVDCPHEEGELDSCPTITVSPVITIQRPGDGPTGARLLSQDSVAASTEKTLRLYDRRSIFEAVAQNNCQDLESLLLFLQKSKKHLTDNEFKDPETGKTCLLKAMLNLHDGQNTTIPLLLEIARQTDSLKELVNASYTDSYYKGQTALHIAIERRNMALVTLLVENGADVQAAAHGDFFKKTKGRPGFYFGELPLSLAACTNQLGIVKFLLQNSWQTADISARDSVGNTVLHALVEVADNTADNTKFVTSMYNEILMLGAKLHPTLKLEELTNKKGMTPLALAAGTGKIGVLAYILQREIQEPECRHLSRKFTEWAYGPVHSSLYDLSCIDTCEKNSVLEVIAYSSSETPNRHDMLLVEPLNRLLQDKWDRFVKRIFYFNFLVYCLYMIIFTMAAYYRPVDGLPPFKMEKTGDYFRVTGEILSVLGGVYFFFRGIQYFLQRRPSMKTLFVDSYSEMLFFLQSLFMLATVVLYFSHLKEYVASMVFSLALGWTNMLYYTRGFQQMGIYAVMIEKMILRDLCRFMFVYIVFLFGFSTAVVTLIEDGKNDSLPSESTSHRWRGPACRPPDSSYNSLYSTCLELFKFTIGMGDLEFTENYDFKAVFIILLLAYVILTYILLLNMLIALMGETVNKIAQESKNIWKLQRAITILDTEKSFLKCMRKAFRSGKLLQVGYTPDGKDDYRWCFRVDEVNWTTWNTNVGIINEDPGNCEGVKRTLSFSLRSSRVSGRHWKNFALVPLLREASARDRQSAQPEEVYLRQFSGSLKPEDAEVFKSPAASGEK

The amount remaining is the share of the starting amount still present when the sample was taken. Usually ED50 stands for the dose at which the effect has come halfway, by size or by number of responders. The term inhibition denotes the drop in the measured response relative to a control, in per cent. Turning to `CC(C(=O)N1CCN(c2cccc(C(F)(F)F)c2)CC1)N1C(=O)CC(N(C)C)C1=O.Cl` (centres unmarked) [KA-232, 3-(Dimethylamino)-1-(1-oxo-1-(4-(3-(trifluoromethyl)phenyl)piperazin-1-yl)propan-2-yl)pyrrolidine-2,5-dione hydrochloride], in data set [1], the share remaining at 2 h was around 73%. Besides, the “% Inhibition of Control Specific Binding” value in data set [2] (10 µM) is −6.3%; in data set [2] (100 µM) it was 18.5%; in data set [5] (10 µM), −1.8%; in data set [5] (100 µM) it was 17.5%. Besides, the ED50 in data set [3] (Mus musculus, ip, 30 min before test, read-out: ED50 6 Hz ± SD) worked out at 26.5 ± 33.5 mg/kg. For the same molecule, the “TI (TD50/ED50), 6 Hz” value in data set [3] (i.p.) is given as 6.14. In addition, the “effect on neuromuscular strength (grip strength)” value is “did not produce any significant effects” in data set [4] (50 mg/kg i.p., 30 min before test) and “slightly decreased” in data set [4] (100 mg/kg i.p., p < 0.05). The “% Inhibition of control specific binding (functional, antagonist effect)” value in data set [6] is given as “did not inhibit”. Also, the inhibition at 10 µM in data set [6] (CHO, read-out: % Inhibition of control specific binding (functional, antagonist effect)) was 10.5%.

The values are drawn from paper PMC10179080, “In Vivo and In Vitro Characterization of Close Analogs of Compound KA-11, a New Antiseizure Drug Candidate” (International Journal of Molecular Sciences, 2023).
